The numbers were not newly measured in US8071770B2, “Spirohydantoin aryl CGRP receptor antagonists” (Merck Sharp & Dohme Corp., priority 2005, dated 2011), which cites them from elsewhere.

Ends that are not written are not given here.

The test system of series [1] is facial blood flow. The settings on record: marmoset, electrical stimulation of the trigeminal ganglion (Doods et al. 2000).
Series [2] relates to facial blood flow. As to conditions: rat, trigeminal ganglion stimulation (Escott et al. 1995).
Series [3] relates to middle meningeal artery. As to conditions: rats, electrical stimulation of the dura mater, prior administration (Williamson et al. 1997).

For `NCCCC[C@H](NC(=O)[C@@H](Cc1cc(Br)c(O)c(Br)c1)NC(=O)N1CCC(N2Cc3ccccc3NC2=O)CC1)C(=O)N1CCN(c2ccncc2)CC1` [BIBN4096BS], the “effect on increase in facial blood flow” value in series [1] is given as “blocked”. As for “CGRP (8-37): a fragment of CGRP that lacks seven N-terminal amino acid residues; a peptide CGRP antagonist (VTHRLAGLLSRSGGVVKNNFVPTNVGSKAF; ends and bridges not checked; UniProt P06881 90-119, looked up, fragment)”, the “effect on increase of facial blood flow” value in series [2] is “inhibited”. In addition, in series [3], the “effect on increase of middle meningeal artery diameter” value was “blocked”.
